Earlier results on two molecules are cited in patent publication US8748695B2, “Molecular markers linked to PPO inhibitor tolerance in soybeans” (Pioneer Hi-Bred International, Inc., priority 2008, dated 2014).

One series relates to soybean cultivars. To be noted: in vivo.

In the case of `Cc1nn(-c2cc(CC(Cl)C(=O)O)c(Cl)cc2F)c(=O)n1C(F)F` (centres unmarked) [Carfentrazone], the half-life entry is reported as “approximately 4 days”.

Regarding `Cc1nn(-c2cc(NS(C)(=O)=O)c(Cl)cc2Cl)c(=O)n1C(F)F` [sulfentrazone], the “Growth Reduction Index” value in the series on soybean cultivars is 20%.
